From patent publication US9066518B2, “Heterocyclic compounds as pesticides” (Bayer CropScience AG, priority 2009, dated 2015)
Read-outs that look alike come from different tables or passages of the source.

What was measured:
[1] = logP determination (neutral / HCOOH); settings: for chromatographic logP: HCOOH (formic acid)
[2] = tested on: green peach aphid (Myzus persicae); test: Myzus test (spray treatment); format: in vivo; settings: foliar, 144 h, read-out: activity (effect in %, aphids killed)
Procedure: Solvents: 78 parts by weight of acetone
• 1.5 parts by weight of dimethylformamide Emulsifier 0.5 part by weight of alkylaryl polyglycol ether
To produce a suitable preparation of active compound, 1 part by weight of active compound is mixed with the stated amounts of solvents and emulsifier, and the concentrate is diluted with emulsifier-containing water to the desired concentration. Discs of leaves of Chinese cabbage (Brassica pekinensis) which are infested by all stages of the green peach aphid (Myzus persicae) are sprayed with an active compound preparation of the desired concentration.
After 6 days, the effect in % is determined. 100% means that all aphids have been killed; 0% means that none of the aphids has been killed.

[3] = application rate 500 g/ha, after 6 days, Chinese cabbage leaf discs

Row | SMILES | pest or weed control at 500 g/ha [2, 3] | chromatographic logP ([1]; logP (HCOOH), HCOOH) | further results
1 | CC(=O)c1cccc(-c2cnn(-c3cccnc3)c2)n1 [1-[6-(1-Pyridin-3-yl-1H-pyrazol-4-yl)pyridin-2-yl]ethanone] | – | – | logP ([1]; logP (neutral), neutral): 1.94
2 | c1cnc(-n2ccc(-c3cnn(-c4cccnc4)c3)n2)nc1 [Example 33] | 100% | 1.33 | –
3 | CC(C)(C)OC(=O)Nc1cccc(-c2cnn(-c3cccnc3)c2)n1 [Example 27] | 100% | 2.87 | –
4 | Cn1cnc(-c2cccc(-c3cnn(-c4cccnc4)c3)n2)n1 [Example 6, 2-(1-Methyl-1H-[1,2,4]triazol-3-yl)-6-(1-pyridin-3-yl-1H-pyrazol-4-yl)pyridine] | 100% | – | logP ([1]; logP (neutral), neutral): 1.29
5 | N=C(N)c1cccc(-c2cnn(-c3cccnc3)c2)n1 [6-(1-Pyridin-3-yl-1H-pyrazol-4-yl)pyridine-2-carboxamidine] | – | – | logP ([1]; logP (neutral), neutral): 1.99
6 | Cc1cnn(-c2cccc(-c3cnn(-c4cccnc4)c3)n2)c1 [Example 79] | 100% | 2.59 | –
7 | c1cncc(-n2cc(-c3nccs3)cn2)c1 [Example 95] | 90% | 1.32 | –
8 | Fc1cccc(-c2cnn(-c3cccnc3)c2)n1 [Example 105] | 80% | 1.77 | –
9 | FC(F)(F)c1ccn(-c2cnn(-c3cccnc3)c2)n1 [Example 3, 1′-Pyridin-3-yl-3-trifluoromethyl-1′H-[1,4′]bipyrazolyl] | 100% | 2.27 | –
10 | CC1(c2cccc(-c3cnn(-c4cccnc4)c3)n2)OCCCO1 [Example 69] | 100% | 1.78 | –
11 | Nc1cccc(-c2cnn(-c3cccnc3)c2)n1 [Example 86] | 100% | 0.29 | logP ([1]; logP (neutral), neutral): 1.3
12 | c1cncc(-n2cc(-c3cccc(C4OCCCO4)n3)cn2)c1 [Example 13] | 90% | 1.59 | –
13 | c1cncc(-n2cc(-c3cccc(-c4nc[nH]n4)n3)cn2)c1 [Example 64] | 100% | 1.14 | –
14 | COc1cc(OC)nc(-c2nccc(-c3cnn(-c4cccnc4)c3)n2)n1 [Example 44] | 100% | 1.56 | –
15 | CC(F)(F)c1cccc(-c2cnn(-c3cccnc3)c2)n1 [Example 29] | 90% | 2.46 | –
16 | COC(=N)c1cccc(-c2cnn(-c3cccnc3)c2)n1 [Example 91] | 100% | 0.84 | –
17 | c1cnc(-c2ccnn2-c2cnn(-c3cccnc3)c2)nc1 [Example 93] | 100% | 1.16 | –
18 | C=C1COC(c2cccc(-c3cnn(-c4cccnc4)c3)n2)OC1 [Example 75] | 100% | 1.9 | –
19 | FC(F)(F)c1cccc(-c2cnn(-c3cccnc3)c2)n1 [Example 4, 2-[1-(Pyridin-3-yl)-1H-pyrazol-4-yl]-6-(trifluoromethyl)pyridine] | 100% | 2.51 | –
20 | FC(F)(F)c1nc(-c2cccc(-c3cnn(-c4cccnc4)c3)n2)no1 [Example 74] | 100% | 2.77 | –
21 | COCC(F)(F)c1cccc(-c2cnn(-c3cccnc3)c2)n1 [Example 11, 2-(1,1-Difluoro-2-methoxyethyl)-6-(1-pyridin-3-yl-1H-pyrazol-4-yl)pyridine] | 100% | – | logP ([1]; logP (neutral), neutral): 2.3

Row | SMILES | pest or weed control at 500 g/ha [2, 3] | chromatographic logP ([1]; logP (HCOOH), HCOOH) | further results
22 | c1cncc(-n2cc(-c3cccc(-c4nnn[nH]4)n3)cn2)c1 [Example 96] | 90% | 1.36 | logP ([1]; logP (neutral), neutral): 0.32
23 | Fc1cnc(-n2ccc(-c3cnn(-c4cccnc4)c3)n2)nc1 [Example 31] | 100% | 1.52 | –
24 | N#Cc1cccc(-c2cnn(-c3cccnc3)c2)n1 [Example 30, 6-(1-Pyridin-3-yl-1H-pyrazol-4-yl)pyridine-2-carbonitrile] | – | – | pest or weed control at 500 g/ha ([2]; in Brassica rapa): 100%; logP ([1]; logP (neutral), neutral): 1.79; logP (neutral) ([1]; neutral): 1.73
25 | COCC(=O)c1cccc(-c2cnn(-c3cccnc3)c2)n1 [Example 85, 2-Methoxy-1-[6-(1-pyridin-3-yl-1H-pyrazol-4-yl)pyridin-2-yl]ethanone] | 100% | – | logP ([1]; HCOOH, logP (HCOOH)): 1.66
26 | c1cncc(-n2cc(-c3cccc(C4OCC5(CC5)CO4)n3)cn2)c1 [Example 60] | 100% | 1.97 | logP ([1]; logP (neutral), neutral): 2.12
27 | Fc1cncc(-n2cc(-c3cccc(C(F)(F)F)n3)cn2)c1 [Example 59] | 100% | 3.1 | logP ([1]; logP (neutral), neutral): 3.14
28 | O=C(Nc1cccc(-c2cnn(-c3cccnc3)c2)n1)C(F)(F)F [Example 103] | 90% | 2.21 | logP ([1]; logP (neutral), neutral): 2.28
29 | c1cncc(-n2cc(-c3cnn(-c4cccnc4)c3)cn2)c1 [Example 112] | 80% | 1.37 | –
30 | Brc1cncc(-n2cc(-c3cccc(-c4ncccn4)n3)cn2)c1 [Example 111] | – | 2.17 | –
31 | CON(C)C(=O)c1cnn(-c2cccnc2)c1 [N-Methoxy-N-methyl-1-(pyridin-3-yl)-1H-pyrazole-4-carboxamide] | – | – | logP ([1]; HCOOH, logP (HCOOH)): 0.91
32 | c1ccc(-c2cnn(-c3cccnc3)c2)nc1 [Example 12] | 100% | 0.81 | –
33 | FC(F)(F)c1cccc(-c2cnn(-c3cncnc3)c2)n1 [Example 107] | 90% | 2.36 | logP ([1]; logP (neutral), neutral): 2.38
34 | Cc1cc(C)n(-c2cccc(-c3cnn(-c4cccnc4)c3)n2)n1 [Example 21] | 100% | 2.64 | –
35 | Cc1nc(-c2cccc(-c3cnn(-c4cccnc4)c3)n2)no1 [Example 70] | 100% | 1.66 | –
36 | Nc1cccc(-c2cnn(-c3cncc(F)c3)c2)n1 [Example 106] | 90% | 0.64 | logP ([1]; logP (neutral), neutral): 1.59
37 | c1cncc(-n2cc(-c3ccncn3)cn2)c1 [Example 113] | – | 0.89 | –
38 | Brc1cccc(-c2cnn(-c3cccnc3)c2)n1 [Example 24] | 100% | 2.18 | –
39 | O=C1CCCCN1c1cccc(-c2cnn(-c3cccnc3)c2)n1 [Example 81] | – | 1.59 | –
40 | c1cncc(-n2cc(-c3cccc(-n4ccnn4)n3)cn2)c1 [Example 61] | 90% | 1.68 | –
41 | CC1CC(C)OC(c2cccc(-c3cnn(-c4cccnc4)c3)n2)O1 (stereo not drawn) [Example 71] | 100% | 2.37 | –
42 | COc1ccc(-c2cnn(-c3cccnc3)c2)cc1 [Example 53] | – | 2.12 | –

Row | SMILES | pest or weed control at 500 g/ha [2, 3] | chromatographic logP ([1]; logP (HCOOH), HCOOH) | further results
43 | FC(F)CNc1cccc(-c2cnn(-c3cccnc3)c2)n1 [Example 48] | 100% | 1.52 | –
44 | Cc1ccn(-c2cccc(-c3cnn(-c4cccnc4)c3)n2)n1 [Example 77] | 100% | 2.51 | –
45 | COCC(=O)c1cccc(Br)n1 [1-(6-Bromopyridin-2-yl)-2-methoxyethanone] | – | – | logP ([1]; logP (neutral), neutral): 1.73
46 | FC(F)(F)COc1cccc(-c2cnn(-c3cccnc3)c2)n1 [Example 25] | – | 2.96 | pest or weed control at 100 g/ha ([2]; application rate 100 g/ha, after 6 days, Chinese cabbage leaf discs): 80%
47 | CC1(C)COC(c2cccc(-c3cnn(-c4cccnc4)c3)n2)OC1 [Example 104] | – | 2.44 | logP ([1]; logP (neutral), neutral): 2.55
48 | O=C(NCC(F)(F)F)c1cccc(-c2cnn(-c3cccnc3)c2)n1 [Example 57] | 100% | 2.12 | –
49 | FC(F)c1cccc(-c2cnn(-c3cccnc3)c2)n1 [Example 63] | 100% | 2.02 | –
50 | O=C1CCCN1c1cccc(-c2cnn(-c3cccnc3)c2)n1 [Example 80] | – | 1.86 | –
51 | CC1(C)OB(c2cnn(-c3cncc(F)c3)c2)OC1(C)C [VI-2] | – | 2.88 | –
52 | CC(=O)c1cnn(-c2cccnc2)c1 [1-[1-(Pyridin-3-yl)-1H-pyrazol-4-yl]ethanone] | – | 0.76 | –
53 | CN(C)/C=C/C(=O)c1cnn(-c2cccnc2)c1 [(2E)-3-(Dimethylamino)-1-[1-(pyridin-3-yl)-1H-pyrazol-4-yl]prop-2-en-1-one] | – | – | logP ([1]; HCOOH, logP (HCOOH)): 0.93
54 | Brc1cccc(-c2ncccn2)n1 [2-(6-Bromopyridin-2-yl)pyrimidine] | – | 1.3 | –
55 | N=C(NO)c1cccc(-c2cnn(-c3cccnc3)c2)n1 [Example 114] | – | 0.86 | –
56 | NC(=S)c1cccc(-c2cnn(-c3cccnc3)c2)n1 [6-(1-Pyridin-3-yl-1H-pyrazol-4-yl)pyridine-2-carbothioamide] | – | – | logP ([1]; logP (neutral), neutral): 1.77
57 | FC(F)(F)c1cccc(-c2cnn(-c3cccnc3)c2)c1 [Example 52] | – | 2.99 | –
58 | N=C(NO)c1cccc(-c2cnn(-c3cccnc3)c2)n1 [N-Hydroxy-6-(1-pyridin-3-yl-1H-pyrazol-4-ylpyridine-2-carboxamidine] | – | – | logP ([1]; logP (neutral), neutral): 1.23
59 | c1cnc(-c2cc[nH]n2)nc1 [2-(1H-Pyrazol-3-yl)pyrimidine] | – | 0.1 | –
60 | CC1(C)OB(c2cnn(-c3cncnc3)c2)OC1(C)C [VI-3] | – | 2.1 | –
61 | Clc1cccc(-c2cnn(-c3cccnc3)c2)n1 [Example 20] | – | 2.05 | –
62 | FC(F)(F)c1cccc(-n2ccc(-c3cnn(-c4cccnc4)c3)n2)n1 [Example 41] | – | 3.18 | –
